# Source: patent publication US20120021010A1, “ANTIPLATELET AGENT AND METHODS OF USING THE SAME” (University of Calcutta, priority 2010, published 2012)
# Test system: platelets
# Experiment: ADP-induced platelet aggregation, chronolog optical aggregometry
# Assay type: cell-based, human
# Conditions: platelets of patient treated with clopidogrel; inset of FIG. 3C
# Method: In this example, platelet aggregation in the presence of SPIONs and various agonists was examined. The study was carried out using chronolog optical aggregometry.
# FIGS. 2A and 2B respectively represent aggregometric results in presence of the agonists arachidonic acid (0.5 mM) and ADP (10 μM). Arachidonic acid is the main target for the antiplatelet drug aspirin and ADP is the main target for the antiplatelet drug clopidogrel. […] Thus, SPIONs cause no change in ADP- and arachidonic acid-induced aggregation of platelets from normal healthy individuals. The 85% to 95% aggregation increase in FIG. 2B can be ignored as the fractional increase is insignificant.
structure (smiles),measurement,value
COC(=O)[C@H](c1ccccc1Cl)N1CCc2sccc2C1 [clopidogrel],ADP-induced platelet aggregation in a patient treated with clopidogrel,ADP cannot induce aggregation
